Measured values reported in US20040254136A1, “Antisense oligonucleotides and related methods for regulating cell death” (priority 2001, published 2004).
Entries after “also recorded” stand apart in the source; their conditions may differ.

Legend:
[1] = system: wild-type sympathetic neurons; assay: Survival of NGF-deprived (TFD) wild-type sympathetic neurons; format: cell-based, mouse; conditions: for protection from TFD-induced death (survival): anti-NGF, BAF 50 μM, DEVD-FMK 10 μM; for protection from NGF withdrawal (survival): anti-NGF plus antisense oligonucleotides, scored daily for three days
Protocol: (§1) Sympathetic neuron cultures were prepared from 1-day-old wild-type and caspase-2−/− mouse pups (Bergeron et al. 1998). Cultures were grown in 24-well collagen-coated dishes for survival experiments and in 6-well collagen-coated dishes for RNA and protein extraction in RPMI 1640 medium plus 10% horse serum with mouse NGF (100 ng/ml). One day following plating, uridine and 5-fluorodeoxyuridine (10 μM each) were added to the cultures and left for three days to eliminate non-neuronal cells (less than 1% non-neuronal cells remain after 3 days). For survival experiments, on the sixth day following plating, NGF was removed by washing the cultures three times with RPMI 1640 medium plus 10% horse serum, followed by the addition of medium containing anti-mouse NGF (1:200, Sigma). Caspase inhibitors (Enzyme Systems Products) were added as indicated. Each culture was scored, as previously described (Troy et al., 1997), for numbers of living, phase-bright neurons present in the same field at various times. Three replicate cultures were assessed for each condition and data are normalized to numbers of neurons present in each culture at the time of NGF deprivation and reported as mean±SEM. For RNA and protein extraction on the sixth day following plating, RNA and protein were extracted using the Trizol reagent according to the manufacturer's protocol.

[2] = system: caspase-2-null sympathetic neurons; assay: Survival of NGF-deprived (TFD) caspase-2-null sympathetic neurons; format: cell-based, mouse; conditions: caspase-2-null neurons; for protection from TFD-induced death (survival): anti-NGF, BAF 50 μM, DEVD-FMK 10 μM; for protection from NGF withdrawal (survival): anti-NGF plus antisense oligonucleotides, scored daily for three days
Protocol: as §1

MIAP3 = assay: Western blotting of MIAP3 after V-AMIAP3 treatment of PC12 cells; format: cell-based; conditions: within 5 hours
Protocol: PC12 cells were treated with V-AMIAP3 (240 nM) for 6 hours. Cells lysates containing equal amounts of protein were subjected to Western blotting using the corresponding antisera. Actin staining confirmed equal loading. These are representative blots. Similar results were obtained in 2 independent experiments.
Postnatal day 1 mouse brains were harvested in sample buffer. For antisense down-regulation studies, PC12 cells, grown as previously described, were treated with various antisense constructs for 5 hours and harvested in sample buffer. Equal amounts of protein were separated by 15% PAGE, transferred to nitrocellulose and immunostained as described (Troy et al, 2000). Anti-caspase-9 (MBL) was used at 1:1000, anti-APAF-1 (StressGen) was used at 1:1000, anti-Smac was used at 1:2000, anti-XIAP (StressGen) was used at 1:1000, anti-RAIDD (StressGen) was used at 1:500 and anti-actin (Sigma) was used at 1:200. Visualization was with ECL, using goat-anti-rabbit peroxidase at 1:1000. The relative intensities of the protein bands were quantified using Scion Image 1.55 software (NIH).

For `COC(=O)CC(NC(=O)OC(C)(C)C)C(=O)CF` (stereo not drawn) [BAF], the “protection from TFD-induced death (survival)” value [1] was “protects; also recorded: rescued” and the “protection from TFD-induced death (survival)” value [2] was “protects; also recorded: rescued”.

In the case of `COC(=O)CC[C@H](NC(=O)[C@H](CC(=O)OC)NC(=O)OCc1ccccc1)C(=O)N[C@H](C(=O)N[C@@H](CC(=O)OC)C(=O)CF)C(C)C` [DEVD-FMK], the “protection from TFD-induced death (survival)” value [1] is reported as “provided protection only for caspase-2-null neurons; also recorded: only the caspase-2-null neurons were rescued” and the “protection from TFD-induced death (survival)” value [2] is reported as “provided protection; also recorded: rescued”.

With “CTGCCGGTCCGCCTCGTCCAT (chemistry not given here) [V-ACasp9, PENETRATIN1™-linked antisense oligonucleotide to caspase-9]” the “protection from NGF withdrawal (survival)” value [1] was “no protection” and the “protection from NGF withdrawal (survival)” value [2] was “protected”.

For “GTTAAAAGTCATCTTCTCTGG (chemistry not given here) [V-AMIAP3, PENETRATIN1™-linked antisense oligonucleotide to MIAP3]”, the “down-regulation of MIAP3” value (MIAP3) was 70%.

For “GTTGTTGTCCATGGTCACTTT (chemistry not given here) [V-ACasp3, PENETRATIN1™-linked antisense oligonucleotide to caspase-3]”, the “protection from NGF withdrawal (survival)” value [1] was “no protection” and the “protection from NGF withdrawal (survival)” value [2] was “protected”.
